Measurements from US11970473B2, “Nootkatone derivatives and methods of using the same” (Arkansas State University—Jonesboro, priority 2021, dated 2024).
In brackets after ≈: the same amount, converted by molar mass. Read-outs that look alike come from different tables or passages of the source.

Tests used:
[1] = system: B. subtilis ATCC 6623 (Bs); assay: Minimal inhibitory concentration (MIC) assay; type: cell-based; conditions: Bacillus subtilis
Method: (§1) Minimal inhibitory concentration (MIC) assay The standard microdilution method recommended by the Clinical and Laboratory Standards Institute (CLSI) was used to determine the MIC of the antibiotics. The starting concentration of compounds was 50 μg/ml and 2-fold dilution was done down the 96 honeycomb well plate column. The MIC assay was conducted in triplicates.

[2] = system: Enterococcus faecalis ATCC 29212 (Es12); assay: Minimal inhibitory concentration (MIC) assay; type: cell-based
Method: as §1

[3] = system: Enterococcus faecium ATCC 700221 (Em21); assay: Minimal inhibitory concentration (MIC) assay; type: cell-based; conditions: Enterococcus faecium
Method: as §1

[4] = system: S. aureus ATCC 25923 (Sa23); assay: Minimal inhibitory concentration (MIC) assay; type: cell-based; conditions: Staphylococcus aureus
Method: as §1

[5] = system: S. aureus ATCC 33591 (Sa91); assay: Minimal inhibitory concentration (MIC) assay; type: cell-based; conditions: Staphylococcus aureus
Method: as §1

[6] = system: S. aureus ATCC 33592 (Sa92); assay: Minimal inhibitory concentration (MIC) assay; type: cell-based; conditions: Staphylococcus aureus
Method: as §1

[7] = system: S. aureus ATCC 700699 (Sa99); assay: Minimal inhibitory concentration (MIC) assay; type: cell-based; conditions: Staphylococcus aureus
Method: as §1

[8] = system: S. aureus BAA-2312 (Sa12); assay: Minimal inhibitory concentration (MIC) assay; type: cell-based; conditions: Staphylococcus aureus
Method: as §1

[9] = system: S. epidermidis 700296 (Se); assay: Minimal inhibitory concentration (MIC) assay; type: cell-based; conditions: Staphylococcus epidermidis, read-out: Antimicrobial activity (MIC) Se
Method: as §1

[10] = system: S. aureus ATCC 700699 and S. aureus ATCC 33591; assay: Time-Kill Assay; type: cell-based; conditions: 4×MIC
Method: Time kill assay for test antibiotics against S. aureus ATCC 700699 and S. aureus ATCC 33591 strains was conducted using procedures published previously.^26 Briefly, a log-phase bacterial culture was diluted to ˜5×10^6 CFU/ml in warm sterile CAMHB broth and was exposed to antibiotics at 4×MIC concentration then incubated at 35° C. Samples of 20 μl were taken every 2 hours, diluted 10 fold to 10^−5, and the 6×6 drop plate method was performed to determine viable CFU/ml after 18-24 hours of incubation at 35° C. Each antibiotic time-kill assay was conducted in triplicate.

[11] = system: MRSA persisters; assay: Persister Cell Killing Assay; conditions: after 4 hrs exposure; 128×MIC
Method: A persister cell killing assay was performed following the methodology described by Kim et. al. with some modifications.^28 S. aureus strain was grown to stationary phase in CAMHB medium by shaking at 200 rpm overnight at 35° C. An aliquot of stationary phase culture (1 ml) was washed thrice with 1×PBS by centrifugation. After washing, the cells were diluted to ˜5×10^8 CFU/ml (confirmed by plate count). Diluted persister cells (2 ml) plus antibiotics at the desired concentration were incubated in sterile 10×75 mm plastic culture tubes at 35° C. with shaking at 200 rpm. At specific times, 400 μl aliquots were placed into microcentrifuge tubes and the cells washed and serially diluted in PBS. The diluted sample was plated on TSA agar plate with 5% sheep blood by the 6×6 drop plate method. Plates were incubated for 18-20 hours at 35° C., and then colonies were counted to calculate concentrations in CFU/ml. The experiment was performed in triplicates.

[12] = ATCC6623, B. subtilis ATCC 6623, read-out: Antimicrobial activity (MIC) Bs
[13] = ATCC29212, Enterococcus faecalis ATCC 29212, read-out: Antimicrobial activity (MIC) Es12
[14] = ATCC700221, Enterococcus faecium ATCC 700221, read-out: Antimicrobial activity (MIC) Em21
[15] = ATCC25923, S. aureus ATCC 25923, antibiotic susceptible strain, read-out: Antimicrobial activity (MIC) Sa23
[16] = ATCC33591, S. aureus ATCC 33591, antibiotic-resistant strain, read-out: Antimicrobial activity (MIC) Sa91
[17] = ATCC33592, S. aureus ATCC 33592, antibiotic-resistant strain, read-out: Antimicrobial activity (MIC) Sa92
[18] = ATCC700699, S. aureus ATCC 700699, antibiotic-resistant strain, read-out: Antimicrobial activity (MIC) Sa99
[19] = BAA2312, S. aureus BAA-2312, antibiotic-resistant strain, read-out: Antimicrobial activity (MIC) Sa12

C=C(C)[C@@H]1CC=C2c3sc(Nc4ccc(F)cc4)nc3C[C@@H](C)[C@]2(C)C1 [Compound 24, (5R,5aS,7R)—N-(4-fluorophenyl)-7-isopropenyl-5,5a-dimethyl-5,6,7,8-tetrahydro-4H-benzo[g][1,3]benzothiazol-2-amine] was tested, and the MIC [1, 12] was 100 mg/L (≈ 271 µM), the MIC [2, 13] was > 100 mg/L and the MIC [3, 14] was > 100 mg/L. For the same compound, the MIC [4, 15] was 50 mg/L (≈ 136 µM), the MIC [5, 16] was > 100 mg/L and the MIC [6, 17] was > 100 mg/L. For the same compound, the MIC [7, 18] was > 100 mg/L, the MIC [8, 19] was > 100 mg/L and the MIC ([9]; S. epidermidis 700296) was > 100 mg/L.

In the case of C=C(C)[C@@H]1CC=C2c3sc(Nc4ccc(F)cc4F)nc3C[C@@H](C)[C@]2(C)C1 [Compound 25, (5R,5aS,7R)—N-(2,4-difluorophenyl)-7-isopropenyl-5,5a-dimethyl-5,6,7,8-tetrahydro-4H-benzo[g][1,3]benzothiazol-2-amine], the MIC [1, 12] was > 100 mg/L, the MIC [2, 13] was > 100 mg/L and the MIC [3, 14] was > 100 mg/L. The MIC [4, 15] was 100 mg/L (≈ 259 µM), the MIC [5, 16] was > 100 mg/L and the MIC [6, 17] was > 100 mg/L. The MIC [7, 18] was > 100 mg/L, the MIC [8, 19] was > 100 mg/L and the MIC ([9]; S. epidermidis 700296) was > 100 mg/L.

With C=C(C)[C@@H]1CC=C2c3sc(Nc4ccc(OC(F)(F)F)cc4)nc3C[C@@H](C)[C@]2(C)C1 [Compound 26, (5R,5aS,7R)-7-isopropenyl-5,5a-dimethyl-N-[4-(trifluoromethoxy)phenyl]-5,6,7,8-tetrahydro-4H-benzo[g][1,3]benzothiazol-2-amine] the MIC [1, 12] was 100 mg/L (≈ 230 µM), the MIC [2, 13] was > 100 mg/L and the MIC [3, 14] was > 100 mg/L. The MIC [4, 15] was 50 mg/L (≈ 115 µM), the MIC [5, 16] was > 100 mg/L and the MIC [6, 17] was > 100 mg/L. For the same compound, the MIC [7, 18] was > 100 mg/L, the MIC [8, 19] was > 100 mg/L and the MIC ([9]; S. epidermidis 700296) was > 100 mg/L.

CN[C@H](CC(C)C)C(=O)N[C@H]1C(=O)N[C@@H](CC(N)=O)C(=O)N[C@H]2C(=O)N[C@H]3C(=O)N[C@H](C(=O)N[C@H](C(=O)O)c4cc(O)cc(O)c4-c4cc3ccc4O)[C@H](O)c3ccc(c(Cl)c3)Oc3cc2cc(c3O[C@@H]2O[C@H](CO)[C@@H](O)[C@H](O)[C@H]2O[C@H]2C[C@](C)(N)[C@H](O)[C@H](C)O2)Oc2ccc(cc2Cl)[C@H]1O [VC, vancomycin, reference compound] was tested, and the MIC ([1]; ATCC6623, read-out: Antimicrobial activity (MIC) Bs) was 0.39 mg/L (≈ 0.269 µM), the MIC ([2]; Enterococcus faecalis, ATCC29212, read-out: Antimicrobial activity (MIC) Es12) was 3.12 mg/L (≈ 2.15 µM) and the MIC ([3]; ATCC700221, read-out: Antimicrobial activity (MIC) Em21) was > 100 mg/L. It also gave an MIC ([4]; ATCC25923, read-out: Antimicrobial activity (MIC) Sa23) of 3.12 mg/L (≈ 2.16 µM), an MIC ([5]; ATCC33591, read-out: Antimicrobial activity (MIC) Sa91) of 1.56 mg/L (≈ 1.08 µM) and an MIC ([6]; ATCC33592, read-out: Antimicrobial activity (MIC) Sa92) of 1.56 mg/L (≈ 1.08 µM). The MIC ([7]; ATCC700699, read-out: Antimicrobial activity (MIC) Sa99) was 0.78 mg/L (≈ 0.538 µM), the MIC ([8]; BAA2312, read-out: Antimicrobial activity (MIC) Sa12) was 0.78 mg/L (≈ 0.538 µM) and the MIC [9] was 1.56 mg/L (≈ 1.08 µM). The eliminated bacteria at [10] was 10 h and the CFU count [11] was 2.4×10^7 CFU.

For gentamycin [reference compound], the CFU count [11] was 2.2×10^8 CFU.
